According to ChEMBL document CHEMBL1933032, “Synthesis and evaluation of 4-alkoxy-[1'-cyclobutyl-spiro(3,4-dihydrobenzopyran-2,4'-piperidine)] analogues as histamine-3 receptor antagonists” (Bioorg Med Chem Lett, 2012):

Biological target: Histamine H3 receptor (Homo sapiens, UniProt Q9Y5N1)
Assay: Binding affinity to human histamine H3 receptor

Sequence of Histamine H3 receptor (Homo sapiens, UniProt Q9Y5N1) (Q9Y5N1 whole entry): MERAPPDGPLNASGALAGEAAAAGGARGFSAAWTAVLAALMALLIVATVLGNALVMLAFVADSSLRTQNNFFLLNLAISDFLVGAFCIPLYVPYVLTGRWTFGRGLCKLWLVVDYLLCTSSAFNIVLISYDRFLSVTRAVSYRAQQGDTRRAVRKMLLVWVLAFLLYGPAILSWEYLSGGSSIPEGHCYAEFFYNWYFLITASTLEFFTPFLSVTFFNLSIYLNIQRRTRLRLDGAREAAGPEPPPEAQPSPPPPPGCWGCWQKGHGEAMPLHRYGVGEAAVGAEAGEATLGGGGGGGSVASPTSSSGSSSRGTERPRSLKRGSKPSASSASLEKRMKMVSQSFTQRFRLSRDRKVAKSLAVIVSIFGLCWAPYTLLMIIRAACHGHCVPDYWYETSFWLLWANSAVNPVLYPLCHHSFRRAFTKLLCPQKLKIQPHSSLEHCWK

Ki | Structure (SMILES)
18 nM | c1cc2c(cc1OCC1CCOC1)CCC1(CCN(C3CCC3)CC1)O2 (stereo not given)
38 nM | CSCCOc1ccc2c(c1)CCC1(CCN(C3CCC3)CC1)O2
15 nM | c1cc2c(cc1O[C@H]1CCOC1)CCC1(CCN(C3CCC3)CC1)O2
26 nM | CC[C@H](O)COc1ccc2c(c1)CCC1(CCN(C3CCC3)CC1)O2
17 nM | c1cc2c(cc1OC1CCSC1)CCC1(CCN(C3CCC3)CC1)O2 (stereo not given)

Biological target: Histamine H3 receptor (Rattus norvegicus, UniProt Q9QYN8)
Assay: Binding affinity to rat histamine H3 receptor

Sequence of Histamine H3 receptor (Rattus norvegicus, UniProt Q9QYN8) (Q9QYN8 whole entry): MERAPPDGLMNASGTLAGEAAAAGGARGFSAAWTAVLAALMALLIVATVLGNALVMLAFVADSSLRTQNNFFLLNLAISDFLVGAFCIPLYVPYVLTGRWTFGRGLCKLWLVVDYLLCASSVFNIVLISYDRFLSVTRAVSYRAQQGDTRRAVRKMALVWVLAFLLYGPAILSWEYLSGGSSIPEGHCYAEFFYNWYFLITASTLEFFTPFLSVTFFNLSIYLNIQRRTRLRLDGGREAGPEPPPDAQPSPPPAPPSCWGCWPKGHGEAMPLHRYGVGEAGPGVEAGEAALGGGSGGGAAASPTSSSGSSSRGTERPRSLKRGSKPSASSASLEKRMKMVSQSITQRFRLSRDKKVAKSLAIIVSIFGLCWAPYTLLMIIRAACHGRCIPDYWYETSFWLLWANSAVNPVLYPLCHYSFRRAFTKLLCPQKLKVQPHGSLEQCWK

Ki | Structure (SMILES)
49 nM | c1cc2c(cc1OCC1CCOC1)CCC1(CCN(C3CCC3)CC1)O2 (stereo not given)
86 nM | CSCCOc1ccc2c(c1)CCC1(CCN(C3CCC3)CC1)O2
39 nM | c1cc2c(cc1O[C@H]1CCOC1)CCC1(CCN(C3CCC3)CC1)O2
112 nM | CC[C@H](O)COc1ccc2c(c1)CCC1(CCN(C3CCC3)CC1)O2
42 nM | c1cc2c(cc1OC1CCSC1)CCC1(CCN(C3CCC3)CC1)O2 (stereo not given)
